Results reported in patent US11497740B2, “Use of Jumonji C demethylase inhibitors for the treatment and prevention of chemotherapy resistance and radioresistance in cancer” (THE BOARD OF REGENTS OF THE UNIVERSITY OF TEXAS SYSTEM, priority 2016, dated 2022).

Experiments:
[1] = system: H3K4me3 demethylase activity; assay: Histone demethylase activity in tumor lysates by ELISA (H3K4me3); assay type: in vivo; details: H1299 T18 xenografts, drug-treated vs vehicle
From the text: To evaluate whether the targeted KDM enzymatic activity was reduced in the JmjC inhibitor-treated tumors in vivo, the inventors measured histone demethylase activity in drug-treated and vehicle-control tumor lysates by ELISA. […] Altogether, the results confirmed reduction of the targeted KDM enzymatic activity with cytostatic/cytotoxic effects in JmjC inhibitor-treated chemoresistant xenografts.

ABCB1/MDR1 = assay: qRT-PCR of ABCB1/MDR1 in treated H1299 T18 cells; assay type: cell-based, human; details: for expression of MDR1: H1299 T18 cells
From the text: Total RNA was isolated using RNeasy Plus Mini kit (Qiagen) and cDNA was generated using iScript cDNA synthesis kit (BioRad). For epigenetic enzymes, transcripts were detected by SYBR Green chemistry in real time quantitative PCR assays using validated primers. TBP and GAPDH were used as endogenous controls. […] For all non-epigenetic transcripts, TaqMan probes (Life Technologies) were utilized in multiplex with GAPDH internal reference gene. Additionally, a reference sample containing pooled RNA from normal human and tumor tissues (Stratagene) was used. PCR reactions were run using the ABI 7300 Real-time PCR System and analyzed with the included software. The comparative CT method was used to compute relative mRNA expression.

[2] = system: immortalized normal human bronchial epithelial cells HBEC3KT and HBEC30KT; assay: Clonogenic survival with IR, normal bronchial epithelial cells; assay type: cell-based; details: IC50 doses of JIB-04, 4 h prior to radiation
Experimental: Cells were serially diluted to appropriate concentrations and plated into 60-mm dish in triplicate for 4 h. Then cells were treated with the indicated drugs, and irradiated 4 hours later with graded doses of radiation for concurrent treatment or irradiated and 4 hours later the drugs added for post-treatment. All cells were irradiated at room temperature in ambient air using a 137Cs source (Mark 1-68 irradiator, JL Shepherd & Associated). Surviving colonies were stained with crystal violet approximately 10 to 14 days later and colonies formed with more than 50 cells were counted. Clonogenic fraction of irradiated cells was normalized to the plating efficiency of unirradiated controls. The data are presented as the mean±SD. The curve S=e^−(αD+βD2) was fitted to the experimental data using a least square fit algorithm using the program Sigma Plot 11.0 (Systat Software, Inc.).
To evaluate whether the effect of JIB-04 on DNA repair dynamics described above was cancer-selective, IC50 doses of JIB-04 in colony formation assays of immortalized normal human bronchial epithelial cells HBEC3KT and HBEC30KT were calculated (FIG. 27A). Then these doses of JIB-04 were used to pretreat cells 4 h prior to radiation and survival was measured. […]

DNA-PKcs = DNA-PKcs p-T2609 foci kinetics after IR; assay type: cell-based, Human; details: H1299; JIB-04 16 nM 4 h, 10 Gy
Experimental: NSCLCs were seeded onto Lab-Tek II Chamber Slides (Thermo Fisher) and 24 hours later pretreated with JIB-04 or DMSO for 4 h. Then cells were exposed to a total dose of 2 Gy (γH2AX and 53BP1) or 10 Gy (RAD-51 and DNAPKcs p-T2609) radiation. For knockdown and overexpression experiments H1299 cells were transfected using the Amaxa Nucleofector; program X-005. Specifically, 3×10^6 were transfected with siRNA duplexes targeting JMJD2A, JMJD2B, Jarid1A, Jarid1b, scrambled siRNA (250 nM final concentration) or expression vectors pCMVHA-JMJD2A, pCMVHA-JMJD2B, pCMVHA-Jarid1A, pCMVHA-Jarid1B, PC-2 for 72 hours, followed by quantification of expression or irradiation. Then, cells were fixed in 4% formaldehyde/PBS for 15 min, permeabilized with 0.5% Triton X-100 for 15 min on ice, and blocked with 5% bovine serum albumin in PBS for 1 h. The slides were incubated with an antibody against phospho-Histone γH2AX (1:1000, 3 h at room temperature), 53BP1 (1:500, 3 h at room temperature), Rad-51 (1:500, 48 hs 4° C.) or DNAPKcs p-T2609 (1:500, 48 hs 4° C.). Alexa Fluor 488-conjugated goat anti-Rabbit, […] goat anti-mouse or rhodamine red-conjugated goat anti-mouse secondaries antibodies were used (1:1000, 1 h at room temperature). […] Cells were analyzed on a Zeiss upright fluorescent microscope.

H1299 NSCLC xenografts = assay: Tumor growth delay with JIB-04 and IR, H1299 xenografts; assay type: in vivo, mice; details: JIB-04 50 mg/kg oral gavage, IR 2 Gy 4 h after drug, every other day, 12 doses
Experimental: H1299 NSCLC cells were injected subcutaneously (5×10^6 cells in 100 μL) into the right posterior leg of female athymic nude mice (nu/nu, 5-6 weeks old). Treatment was initiated when the subcutaneous tumors reached an average size of 150 to 200 mm^3. Mice were treated with JIB-04 (50 mg/kg/day) by oral gavage or with vehicle (12.5% Cremophor EL, 12.5% DMSO as an aqueous suspension) as control; radiation was administered 4 hours after treatment. The treatment regimen consisted of a total of 12 doses of drug and/or ionizing radiation given every other day. Tumor growth delay and the dose enhancement factor were then determined. Body weight and general health were monitored every other day during the drug-treatment period and afterward. Standard survival criteria was applied to ensure animals including severe lethargy, 20% weight loss, tumor burden >2,000 mm^3 and difficulty breathing. Survival data was analyzed using GraphPad Prism software.

Structure (SMILES)	H3K4me3 demethylase activity in tumor lysates [1]	expression of MDR1 (ABCB1/MDR1)	radiosensitization (clonogenic survival) [2]	DNA-PKcs foci resolution (DNA-PKcs)	DNA-PKcs recruitment to DSBs (DNA-PKcs)	decrease in ABCB1/MDR1 mRNA expression (ABCB1/MDR1; high dose JIB-04 (10×-20×IC50), 24-48 h treatment)	decrease in ABCB1/MDR1 mRNA expression (ABCB1/MDR1; low dose JIB-04 (1×IC50), 1 wk treatment)	survival of tumor bearing mice, JIB-04 with IR (H1299 NSCLC xenografts)	tumor growth, JIB-04 with IR (H1299 NSCLC xenografts)
CCOC(=O)CCNc1cc(N2CCc3ccccc3CC2)nc(-c2ccccn2)n1 [GSK-J4]	without reducing H3K4me3 or H3K9me3 demethylase activity	not altered							
Clc1ccc(N/N=C(\c2ccccc2)c2ccccn2)nc1 [JIB-04]	significantly inhibited	not altered	did not radiosensitize	majority of DNA-PKcs foci remained unresolved even 24 h post irradiation	robust deficiency in DNA-PKcs recruitment with foci not forming until 6 h post IR	10-20%	10-20%	survived significantly longer	synergistic robust inhibition of tumor growth
